Measurements reported in ChEMBL document CHEMBL3046374, “Preparation of 5-chloro-6-fluoroimidacloprid analogs and comparison of their insecticidal activity in a laboratory test with a 6-chloro-5-fluoro analog” (J Pestic Sci, 2007).

Legend:
[1] = system: Spodoptera litura; assay: Insecticidal activity against Spodoptera litura second-instar larvae fed on compound pre-treated cabbage leaves assessed as insect mortality measured 5 days post compound treatment; assay type: functional
[2] = system: Myzus persicae; assay: Insecticidal activity against Myzus persicae (green peach aphid) first-instar nymphs fed on compound pre-treated egg plant seedlings or Japanese radish leaves assessed as insect mortality measured 5 days post compound treatment; assay type: functional
[3] = system: Nilaparvata lugens; assay: Insecticidal activity against Nilaparvata lugens (brown planthopper) second or third-instar nymphs fed on compound pre-treated rice seedlings assessed as insect mortality measured 5 days post compound treatment; assay type: functional
[4] = Lipophilicity, logP of the compound at 25 degC; assay type: physicochemical; settings: octanol/water

SMILES	LD90 [1] [ppm]	LD90 [2] [ppm]	LD90 [3] [ppm]	logP [4]
N#C/N=C1/NCCN1Cc1cnc(F)c(Cl)c1	>200	200	>200	–
O=[N+]([O-])/N=C1\NCCN1Cc1ccc(Cl)nc1 [IMIDACLOPRID]	>50	0.2	0.2	–
N#C/N=C1/SCCN1Cc1cnc(F)c(Cl)c1	>200	50	>200	–
O=[N+]([O-])/N=C1/NCCN1Cc1cnc(F)c(Cl)c1	>200	200	50	0.98
O=[N+]([O-])/N=C1/NCCN1Cc1cnc(Cl)c(F)c1 [5-FLUOROIMIDACLOPRID]	>50	0.2	0.2	0.79
N#C/N=C1/OCCN1Cc1cnc(F)c(Cl)c1	>200	200	>200	–
O=[N+]([O-])/N=C1/SCCN1Cc1cnc(F)c(Cl)c1	>200	>200	>200	–
